Measured values: patent US11897961B2, “Anti-CD123 antibodies and conjugates and derivatives thereof” (IMMUNOGEN, INC., priority 2015, dated 2024)

What was measured:
[1] = tested on: EOL-1 cells; assay: EOL-1 subcutaneous model in athymic nude mice, third study
[2] = tested on: normal blood cells / normal progenitor cells versus AML progenitors; assay: Cytotoxicity on normal blood / normal progenitor cells versus AML progenitors; assay type: cell-based, human; settings: FIG. 11E and FIG. 19
[3] = tested on: TF-1 cells; assay: Proliferation of TF-1 cells grown in the presence of GM-CSF (IL-3-dependence control); assay type: cell-based, human; settings: GM-CSF 2 ng/mL
Procedure: (§1) The ability of anti-CD123 antibodies to inhibit IL3-mediated signaling and proliferation was examined in vitro using the erythroleukemia cell line TF-1 that can proliferate only in the presence of one of the following growth factors, either IL-3 or GM-CSF. TF-1 cells were cultured in the complete RPMI medium (RPMI-1640, 10% fetal bovine serum and 50 μg/mL gentamicin sulfate; all reagents were from Invitrogen) supplemented with GM-CSF (2 ng/mL). Prior to setting up the proliferation assays, the cells were washed and then starved of the growth factors overnight. […] TF-1 cells were plated at 6,000 cells per well in the complete RPMI medium in either the presence or absence of 10 μg/mL of an anti-CD123 antibody. A growth factor, either IL-3 (1 ng/mL) or GM-CSF (2 ng/mL), was added to the cells to initiate cell proliferation. […] The relative numbers of viable cells in each well were determined by the colorimetric WST-8 assay (Dojindo Molecular Technologies, Inc., Rockville, MD, US). WST-8 is reduced by dehydrogenases in viable cells to an orange formazan product that is soluble in tissue culture medium. The amount of formazan produced is directly proportional to the number of viable cells. […] Then the absorbance was measured on a plate-reader spectrophotometer in the dual wavelength mode 450 nm/650 nm, and the absorbance at the 650 nm (non-specific light scattering by cells) was subtracted from that at the 450 nm.

[4] = tested on: TF-1 cells; assay: Inhibition of IL-3-dependent proliferation of TF-1 cells (WST-8); assay type: cell-based, human; settings: dose-response
Procedure: as §1, with “US).” for “US). WST-8 is reduced by dehydrogenases in viable cells to an orange formazan product that is soluble in tissue culture medium. The amount of formazan produced is directly proportional to the number of viable cells.”
TF-1 cells were plated at 6,000 cells per well in 100 μL culture medium. […] Relative cell number in each well was determined by WST-8 assay as described above. […]

Nc1ncn([C@@H]2O[C@H](CO)[C@@H](O)[C@H]2O)c(=O)n1 [Azacitidine]
% T/C (Day 16) ([1]; 3.75 mg/kg, q3d × 5, i.p.): 59%
CR ([1]; 3.75 mg/kg, q3d × 5, i.p.): 0/8
PR ([1]; 3.75 mg/kg, q3d × 5, i.p.): 0/8
Result ([1]; 3.75 mg/kg, q3d × 5, i.p.): Inactive

Nc1ccn([C@@H]2O[C@H](CO)[C@@H](O)[C@@H]2O)c(=O)n1 [Cytarabine]
% T/C (Day 16) ([1]; 75 mg/kg, qd × 5, i.p.): 84%
CR ([1]; 75 mg/kg, qd × 5, i.p.): 0/8
PR ([1]; 75 mg/kg, qd × 5, i.p.): 0/8
Result ([1]; 75 mg/kg, qd × 5, i.p.): Inactive

gemtuzumab ozogamicin [Mylotarg]
fold difference in cytotoxicity between normal blood/progenitor cells and AML progenitor cells [2]: 10 fold

B1: muCD123-3: murine anti-CD123 monoclonal antibody, HCVR SEQ ID NO: 26, LCVR SEQ ID NO: 27 (antibody, V domains shown)
VH: EFQLQQSGPEVVKPGASVKMSCKASGYTFTSYVMHWMKQKPGQGLEWIGYIKPYKDGTKYNEKFKGKATLISDKPSSTAYMELSSLTSEDSAVYYCAREGENGYYDAMDYWGQGTSVTVSS
VL: DIQMTQSPSSLSASLGGKVTITCKASQDINKYIAWYQHKPGKGPRLLIHYTSTLQPGIPSRFSGSGSGRDYSFSISNLEPEDIATYYCLQYDNLLYTFGGGTKLELKR
effect on TF-1 cell proliferation in the presence of GM-CSF [3]: no inhibitory effect

B2: muCD123-14: murine anti-CD123 monoclonal antibody, HCVR SEQ ID NO: 30, LCVR SEQ ID NO: 31 (antibody, V domains shown)
VH: EVKLVESGGDLVKPGGSLKLSCAASGFTFSNYAMSWVRQNSEKRLEWVATINSGGSFTYYPDSVKGRFTISRDNAKDSLYLQMSSLNSEDTAMYYCARQSEAYYGYDKRTWFAYWGQGTLVTVSS
VL: DILLTQSPAILSVSPGTRVSFSCRASQSVGTSIHWYQQRPNGFPRLLIKYASESISGIPSRFSGSGSGTDFTLNINSVESEDIADYYCQQSKSWPLTFGAGTKLELKR
effect on TF-1 cell proliferation in the presence of GM-CSF [3]: no inhibitory effect

B3: muCD123-6: murine anti-CD123 monoclonal antibody, HCVR SEQ ID NO: 28, LCVR SEQ ID NO: 29 (antibody, V domains shown)
VH: EFQLQQSGPELVKPGASVKMSCKASGYIFTSSIMHWMKQKPGQGLEWIGYIKPYNDGTKYNEKFKGKATLTSDKSSSTANMELNSLTSEDSAVYYCAREGGNDYYDTMDYWGQGTSVTVSS
VL: DIKMTQSPSSMYASLGERVTITCKASQDINSYLSWFQQKPGKSPKTLIYRVNRLVDGVPSRFSGSGSGQDYSLTISSLEYEDMGIYYCLQYDAFPYTFGGGTKLEIKR
effect on TF-1 cell proliferation in the presence of GM-CSF [3]: no inhibitory effect

B4: chCD123-6: chimeric antibody: mouse HCVR/LCVR SEQ ID NOs: 28 and 29 with human IgG1 and Kappa constant sequences (antibody, V domains shown)
VH: EFQLQQSGPELVKPGASVKMSCKASGYIFTSSIMHWMKQKPGQGLEWIGYIKPYNDGTKYNEKFKGKATLTSDKSSSTANMELNSLTSEDSAVYYCAREGGNDYYDTMDYWGQGTSVTVSS
VL: DIKMTQSPSSMYASLGERVTITCKASQDINSYLSWFQQKPGKSPKTLIYRVNRLVDGVPSRFSGSGSGQDYSLTISSLEYEDMGIYYCLQYDAFPYTFGGGTKLEIKR
modifications: human IgG1 and kappa constant regions
effect on TF-1 cell proliferation in the presence of GM-CSF [3]: no inhibitory effect
inhibition of IL-3-dependent proliferation of TF-1 cells (in words) [4]: completely inhibited at 1 nM
